Converted amounts (≈) assume the structure as drawn. Like-named read-outs stand apart in the source and are kept apart here.

As usually defined, the LD50 is the dose expected to kill half of the subjects tested. The term mortality denotes the share of the test organisms that died. Broadly, the LC50 is the concentration that kills 50% of the test population. A high value points to a less lethal substance.

The nature of data set [1]: Test Example 8: Acute Toxicity Test to Mice. To be noted: mouse, in vivo, po; forced peroral administration, corn oil, 6-week mice, up to 14 days. How it is done:
Acute Toxicity Test to Mice
The compound of the invention having a predetermined concentration was dissolved in corn oil and applied to 6-week mice by forced peroral administration. Up to 14 days from the administration, the number of the died mice was counted periodically, from which the 50 %-lethal […] (LD50) was obtained. One group for the test comprised ten mice.

The test system of data set [2] is resistant strain of Nephotettix cincticeptus Uhler - resistant green rice leafhopper. The experiment in a line: Test Example 2: Effect on resistant green rice leafhopper, mortality. To be noted: Nephotettix cincticeps. Format: in vivo. How it is done:
(§1) Effect on resistant strain of Nephotettix cincticeptus Uhler--resistant green rice leafhopper
The emulsion prepared in Formulation Example 1 was diluted to a predetermined concentration and 3 ml of the diluted emulsion was applied over a bundle of several rice seedlings (about third leaf stage). After drying in air, the treated seedlings were covered with a metal gauze cylinder, in which ten female adults of the leafhopper that is resistant to organophosphate and carbamate insecticides were released, followed by placing in a temperature controlled room at 25° C. After 48 hours, the mortality was checked.

Data set [3] deals with Myzus persicae Suizer - green peach aphid. Kind of data set: Test Example 4: Effect on green peach aphid, density of living insects. Format: in vivo. To be noted: 50 ppm, after three days; 100 × (living insects after / before treatment). As for the experimental part: Effect on Myzus persicae Suizer green peach aphid
20 ml of a dilution of the emulsion prepared in Formulation Example 1 was sprayed over potted eggplant seedlings (fourth or fifth leaf stage), as having been grown in a greenhouse, on which the green peach aphids had been parasitic. After the application, the seedlings were placed in the greenhouse and, after three days, the number of the aphids was checked.
(§2) Density of Living Insects = 100 × (number of living insects after
(§3) treatment/number of living insects before treatment)

Data set [4] has the same test system. The experiment in a line: Test Example 7: Effect on green peach aphid, density of living insects. The class given is in vivo. To be noted: after three days; 100 × (living insects after / before treatment).
Source text: Effect on Myzus persicae Suizer--green peach aphid
After the application, the seedlings were placed in the greenhouse and, after three days, the number of the aphids was checked, from which the density of the living insects was obtained. The tests were repeated two times.
as §2, §3

Data set [5] has as its system Laodelphax striatellus Fallen - smaller brown planthopper. The experiment in a line: Test Example 5: Effect on smaller brown planthopper, LC50. The class given is in vivo. The following applies: 48 hours, 25° C. How it is done: Effect on Laodelphax striatellus Fallen--smaller brown planthopper
The emulsion prepared in Formulation Example 1 was diluted to predetermined concentrations, and 2 ml of each diluted emulsion was applied over a bundle of several rice seedlings (about third leaf stage). After drying in air, the treated seedlings were covered with a metal gauze cylinder, in which ten female adults of the smaller brown planthopper were released, followed by placing in a temperature controlled room at 25° C. After 48 hours, the mortality was checked, from which the medium-lethal concentration […] was obtained.

Data set [6] relates to resistant strain of Nephotettix cincticeptus Uhler - resistant green rice leafhopper. Kind of data set: Test Example 6: Effect on resistant green rice leafhopper, LC50. The following applies: Nephotettix cincticeps, 48 h. The class given is in vivo. How it is done:
as §1
The emulsion prepared in Formulation Example 1 was diluted to predetermined concentrations, and 2 ml of each diluted emulsion was applied over a bundle of several rice seedlings (about third leaf stage). After drying in air, the treated seedlings were covered with a metal gauze cylinder, in which ten female adults of the leafhopper that is resistant to organophosphate and carbamate insecticides were released, followed by placing in a temperature controlled room at 25° C. After 48 hours, the mortality was checked, from which the 50 %-lethal concentration (LC50) was obtained.

Data set [7] concerns Laodelphax striatellus Fallen - smaller brown planthopper. The experiment in a line: Test Example 1: Effect on smaller brown planthopper, mortality. The following applies: 5 ppm, 48 hours, 25° C., ten female adults, rice seedlings. Format: in vivo. As for the experimental part: Effect on Laodelphax sriatellus Fallen--smaller brown planthopper
The emulsion prepared in Formulation Example 1 was diluted to a predetermined concentration and 2 ml of the diluted emulsion was applied over a bundle of several rice seedlings (about third leaf stage). After drying in air, the treated seedlings were covered with a metal gauze cylinder, in which ten female adults of the smaller brown planthopper were released, followed by placing in a temperature controlled room at 25° C. After 48 hours, the mortality was checked.

Data set [8] has as its system Callosobruchus chinensis Linne - Azuki bean weevil. The experiment in a line: whole plant or invertebrate. Format: in vivo. The following applies: 48 h. As for the experimental part: Effect on Callosobruchus chinensis Linne--Azuki bean weevil:
An acetone solution of the compound of the invention was added to a Petri dish with a diameter of 9 cm, followed by removal of the acetone by evaporation. Twenty female adults of the Azuki bean weevil, which were 2 to 3 days after emergence were placed in the dish at 25° C. After 48 hours, the mortality was checked.

The mark [9] stands for this setting: 3 ppm, 48 hours, 25° C., ten female adults resistant to organophosphate and carbamate insecticides, read-out: Mortality (%).

As to `COc1ccc(C=CN2CCN(Cc3ccc(Cl)nc3)C2=N[N+](=O)[O-])cc1` [No. 10], the LD50 at 336 h in data set [1] was > 5000 mg/kg. Further, the mortality at 3 ppm in data set [2] (setting [9]) was 100%.
As for `COP(=O)(OC)OC=C(Cl)Cl` [DDVP, 0,0-dimethyl-0-(2,2-dichlorovinyl)phosphate], the “Density of Living Insects” value in data set [3] stood at 30.
Turning to `CC(C)C=CN1CCN(Cc2ccc(Cl)nc2)C1=N[N+](=O)[O-]` [No. 27], the “Density of Living Insects” value in data set [4] is recorded as 0. The LC50 in data set [5] was 1 ppm; in data set [6], 0.3 µg/mL (≈ 0.927 µM). Besides, the LD50 at 336 h in data set [1] was determined as 1000 mg/kg.
Regarding `O=[N+]([O-])N=C1N(CCc2ccccc2)CCN1Cc1ccc(Cl)nc1` [Reference Chemical 2, 1(2-chloropyridin-5-ylmethyl)-2-nitroimino-3-(2-phenylethyl)imidazolidine, reference compound], the “Density of Living Insects” value in data set [4] is listed as 108. Moreover, the LC50 in data set [5] came out at 20 ppm; in data set [6] it was 10 µg/mL (≈ 27.8 µM).
As to `O=C(NC=CN1CCN(Cc2ccc(Cl)nc2)C1=N[N+](=O)[O-])c1ccccc1` [No. 41], the “Mortality (%)” value in data set [7] is 100%.
Compound `CCOP(=S)(OCC)Oc1cc(C)nc(C(C)C)n1` [Diazinone] returned a mortality at 0.01 mg/dish, 0.01 mg/dish in data set [8] of 58%.
`O=[N+]([O-])N=C1N(C=Cc2ccc3c(c2)OCO3)CCN1Cc1ccc(Cl)nc1` [No. 11]: in data set [7], the “Mortality (%)” value was found to be 100%. Besides, the mortality at 3 ppm in data set [2] (setting [9]) was found to be 100%.
Consider `O=[N+]([O-])N=C1N(C=Cc2ccccc2Cl)CCN1Cc1ccc(Cl)nc1` [No. 12], for which, in data set [7], the “Mortality (%)” value amounted to 100%.
Take `COCN1CCN(Cc2ccc(Cl)nc2)C1=N[N+](=O)[O-]` [Reference Chemical (2), 1(2-chloropyridin-5-ylmethyl)-2-nitroimino-3-methoxymethylimidazolidine, reference compound]: the “Mortality (%)” value in data set [7] came out at 20%. Also, in data set [2] (setting [9]), the mortality at 3 ppm was 30%.
Consider `C=CN1CCN(Cc2ccc(Cl)nc2)C1=N[N+](=O)[O-]` [No. 1], for which the “Mortality (%)” value in data set [7] stood at 100%. Further, the mortality at 3 ppm in data set [2] (setting [9]) came to 100%.
As for `C=CCN1CCN(Cc2ccc(Cl)nc2)C1=N[N+](=O)[O-]` [Reference Chemical 1, 1(2-chloropyridin-5-ylmethyl)-2-nitroimino-3-allylimidazolidine, reference compound], the “Density of Living Insects” value in data set [4] is given as 25. Further, the LC50 in data set [5] was 10 ppm; in data set [6] it was 3 µg/mL (≈ 10.1 µM). The LD50 at 336 h in data set [1] fell in the range of 100 to 200 mg/kg.
`CCSC=CN1CCN(Cc2ccc(Cl)nc2)C1=N[N+](=O)[O-]` [No. 42, 1-(2-chloropyridin-5-ylmethyl)-2-nitroimino-3-(2-ethylthiovinyl)imidazolidine]: the “Mortality (%)” value in data set [7] is recorded as 100%.
With `CCCCC(=CN1CCN(Cc2ccc(Cl)nc2)C1=N[N+](=O)[O-])CC` [No. 33, 1-(2-chloropyridin-5-ylmethyl)-2-nitroimino-3-(2-ethyl-1hexenyl)imidazlidine], the “Mortality (%)” value in data set [7] is 100%. For the same compound, in data set [2] (setting [9]), the mortality at 3 ppm was found to be 100%.
On to `O=[N+]([O-])N=C1N(CCc2ccc(Cl)cc2)CCN1Cc1ccc(Cl)nc1` [Reference Chemical (1), 1(2-chloropyridin-5-ylmethyl)-2-nitroimino-3-{2-(4-chlorophenyl)ethyl}imiazolidine, reference compound], for which the “Mortality (%)” value in data set [7] is 20%. In addition, the mortality at 3 ppm in data set [2] (setting [9]) was 25%.
As to `O=[N+]([O-])N=C1N(C=Cc2ccccc2)CCN1Cc1ccc(Cl)nc1` [No. 2], in data set [4], the “Density of Living Insects” value is reported as 20. In addition, the LC50 in data set [5] was 3 ppm; in data set [6] it was 1.5 µg/mL (≈ 4.19 µM). In data set [2] (48 h), this compound returned a mortality at 3 ppm of 100%.
As for `O=[N+]([O-])N=C1N(C=Cc2ccc(Cl)cc2)CCN1Cc1ccc(Cl)nc1` [No. 14], in data set [7], the “Mortality (%)” value is 100%.
On to `O=[N+]([O-])N=C1N(C=CCc2ccccc2)CCN1Cc1ccc(Cl)nc1` [No. 40], for which the “Mortality (%)” value in data set [7] is recorded as 100%. For the same compound, the mortality at 3 ppm in data set [2] (setting [9]) came to 100%.
